Values joined by “and” are separate entries in the source; they are usually repeats but may differ in a detail not shown here. Equal entries are not always repeated.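 Assay format: 96-well plates, 48-hour exposure. GI50 is the concentration that inhibits growth by half. TGI: total growth inhibition.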
Experiments:
Experiment in all cases: NCI tumour cell line growth inhibition, 48 h
UACC-62 melanoma = tested on: UACC-62 melanoma
SR leukemia = tested on: SR leukemia
K-562 leukemia = tested on: K-562 leukemia
OVCAR-4 ovarian = tested on: OVCAR-4 ovarian
SK-MEL-28 melanoma = tested on: SK-MEL-28 melanoma
OVCAR-3 ovarian = tested on: OVCAR-3 ovarian
SN12C renal = tested on: SN12C renal
SK-MEL-2 melanoma = tested on: SK-MEL-2 melanoma
IGROV1 ovarian = tested on: IGROV1 ovarian
OVCAR-5 ovarian = tested on: OVCAR-5 ovarian
DLD-1 colon = tested on: DLD-1 colon
RXF 393 renal = tested on: RXF 393 renal
SK-OV-3 ovarian = tested on: SK-OV-3 ovarian
HOP-62 NSCLC = tested on: HOP-62 NSCLC
A549 NSCLC = tested on: A549 NSCLC
HT29 colon = tested on: HT29 colon
HCT-116 colon = tested on: HCT-116 colon
DMS 273 small cell lung = tested on: DMS 273 small cell lung
MALME-3M melanoma = tested on: MALME-3M melanoma
XF 498 CNS = tested on: XF 498 CNS
RPMI-8226 leukemia = tested on: RPMI-8226 leukemia
LOX IMVI melanoma = tested on: LOX IMVI melanoma
EKVX NSCLC = tested on: EKVX NSCLC
M14 melanoma = tested on: M14 melanoma
SNB-19 CNS = tested on: SNB-19 CNS
CCRF-CEM leukemia = tested on: CCRF-CEM leukemia
NCI-H522 lung = tested on: NCI-H522 lung
MOLT-4 leukemia = tested on: MOLT-4 leukemia
UO-31 renal = tested on: UO-31 renal
KM12 colon = tested on: KM12 colon
NCI-H23 lung = tested on: NCI-H23 lung
SF-539 CNS = tested on: SF-539 CNS
SF-268 CNS = tested on: SF-268 CNS
SF-295 CNS = tested on: SF-295 CNS
SNB-78 CNS = tested on: SNB-78 CNS
NCI-H460 lung = tested on: NCI-H460 lung
COLO 205 colon = tested on: COLO 205 colon
SW-620 colon = tested on: SW-620 colon
DMS 114 small cell lung = tested on: DMS 114 small cell lung
HOP-18 NSCLC = tested on: HOP-18 NSCLC
NCI-H226 lung = tested on: NCI-H226 lung
HL-60(TB) leukemia = tested on: HL-60(TB) leukemia
CAKI-1 renal = tested on: CAKI-1 renal
SNB-75 CNS = tested on: SNB-75 CNS
RXF-631 renal = tested on: RXF-631 renal
HOP-92 NSCLC = tested on: HOP-92 NSCLC
HCC-2998 colon = tested on: HCC-2998 colon
786-0 renal = tested on: 786-0 renal
ACHN renal = tested on: ACHN renal
TK-10 renal = tested on: TK-10 renal
KM20L2 colon = tested on: KM20L2 colon
LXFL 529 NSCLC = tested on: LXFL 529 NSCLC
UACC-257 melanoma = tested on: UACC-257 melanoma
SK-MEL-5 melanoma = tested on: SK-MEL-5 melanoma
U251 CNS = tested on: U251 CNS
OVCAR-8 ovarian = tested on: OVCAR-8 ovarian

Question: `CC1OC(OC23C(=O)CC(C)(O)CC2(O)C=CC2=C3C(=O)c3ccc(C4CC(OC5CCC(OC6CC(O)C(O)C(C)O6)C(C)O5)C(O)C(C)O4)c(O)c3C2=O)CCC1O` (stereo unspecified) was tested. Which TGI (UACC-62 melanoma) did it give?
Answer: 30 µM and 27.1 µM

Question: What about the TGI (SR leukemia) of the same compound?
Answer: > 100 µM

Question: What about the TGI (K-562 leukemia) of the same compound?
Answer: > 100 µM

Question: What about the TGI (OVCAR-4 ovarian) of the same compound?
Answer: 33.6 µM and 30 µM

Question: And the TGI (SK-MEL-28 melanoma)?
Answer: 29 µM and 27.3 µM

Question: What about the GI50 (OVCAR-3 ovarian) of the same compound?
Answer: 15.9 µM and 2.86 µM

Question: And the TGI (OVCAR-3 ovarian)?
Answer: 29.8 µM and 9.07 µM

Question: And the TGI (SN12C renal)?
Answer: 32.5 µM and 30.1 µM

Question: And the TGI (SK-MEL-2 melanoma)?
Answer: 31.2 µM and 30.5 µM

Question: And the TGI (IGROV1 ovarian)?
Answer: 30.6 µM and 30.1 µM

Question: And the TGI (OVCAR-5 ovarian)?
Answer: 33.1 µM and 34.9 µM

Question: And the TGI (DLD-1 colon)?
Answer: 26.8 µM and 23.8 µM

Question: And the GI50 (RXF 393 renal)?
Answer: 13.8 µM and 5.87 µM

Question: And the TGI (RXF 393 renal)?
Answer: 26.9 µM and 19.2 µM

Question: And the TGI (SK-OV-3 ovarian)?
Answer: 86.2 µM and 46 µM

Question: And the TGI (HOP-62 NSCLC)?
Answer: 79.4 µM and 41.4 µM

Question: What about the TGI (A549 NSCLC) of the same compound?
Answer: 82.1 µM and 65.2 µM

Question: What about the TGI (HT29 colon) of the same compound?
Answer: 36.1 µM and 27.8 µM

Question: And the GI50 (HCT-116 colon)?
Answer: 15.1 µM and 5.78 µM

Question: What about the TGI (HCT-116 colon) of the same compound?
Answer: 28.5 µM and 18.6 µM

Question: And the GI50 (DMS 273 small cell lung)?
Answer: 20.5 µM and 3.18 µM

Question: What about the TGI (DMS 273 small cell lung) of the same compound?
Answer: 36.3 µM and 10 µM

Question: And the TGI (MALME-3M melanoma)?
Answer: 8.48 µM and 3.49 µM

Question: What about the TGI (XF 498 CNS) of the same compound?
Answer: 32.9 µM and 32.1 µM

Question: What about the TGI (RPMI-8226 leukemia) of the same compound?
Answer: > 100 µM

Question: What about the GI50 (LOX IMVI melanoma) of the same compound?
Answer: 13.1 µM and 6.26 µM

Question: What about the TGI (LOX IMVI melanoma) of the same compound?
Answer: 27.5 µM and 19.7 µM

Question: What about the TGI (EKVX NSCLC) of the same compound?
Answer: 32.7 µM and 31.7 µM

Question: What about the TGI (M14 melanoma) of the same compound?
Answer: 32.3 µM and 26.7 µM

Question: And the GI50 (SNB-19 CNS)?
Answer: 50.8 µM and 22.8 µM

Question: What about the TGI (SNB-19 CNS) of the same compound?
Answer: > 100 µM and 51.7 µM

Question: What about the TGI (CCRF-CEM leukemia) of the same compound?
Answer: > 100 µM

Question: And the TGI (NCI-H522 lung)?
Answer: 3.83 µM and 3.5 µM

Question: What about the TGI (MOLT-4 leukemia) of the same compound?
Answer: > 100 µM

Question: And the TGI (UO-31 renal)?
Answer: 32.2 µM and 32.4 µM

Question: And the TGI (KM12 colon)?
Answer: 31.2 µM and 27.5 µM

Question: And the TGI (NCI-H23 lung)?
Answer: 33.1 µM and 30.7 µM

Question: And the TGI (SF-539 CNS)?
Answer: 31.8 µM and 31.4 µM

Question: What about the TGI (SF-268 CNS) of the same compound?
Answer: 31.4 µM and 31.2 µM

Question: What about the GI50 (SF-295 CNS) of the same compound?
Answer: 16.5 µM and 3.06 µM

Question: What about the TGI (SF-295 CNS) of the same compound?
Answer: 30.4 µM and 9.87 µM

Question: And the TGI (SNB-78 CNS)?
Answer: 35.2 µM and 34.4 µM

Question: What about the TGI (NCI-H460 lung) of the same compound?
Answer: 38 µM and 34.3 µM

Question: And the TGI (COLO 205 colon)?
Answer: 11.8 µM and 8.15 µM

Question: And the TGI (SW-620 colon)?
Answer: 15.7 µM and 10.9 µM

Question: And the GI50 (DMS 114 small cell lung)?
Answer: 16.5 µM and 8.11 µM

Question: And the TGI (DMS 114 small cell lung)?
Answer: 31 µM and 21.2 µM

Question: What about the TGI (HOP-18 NSCLC) of the same compound?
Answer: 31.3 µM and 30.8 µM

Question: And the TGI (NCI-H226 lung)?
Answer: 38.5 µM and 35.5 µM

Question: And the TGI (HL-60(TB) leukemia)?
Answer: > 100 µM

Question: And the TGI (CAKI-1 renal)?
Answer: 33.5 µM and 34.5 µM

Question: What about the TGI (SNB-75 CNS) of the same compound?
Answer: 32.5 µM and 29.9 µM

Question: What about the TGI (RXF-631 renal) of the same compound?
Answer: 35.6 µM and 26.5 µM

Question: What about the GI50 (HOP-92 NSCLC) of the same compound?
Answer: 15.2 µM and 4.81 µM

Question: What about the TGI (HOP-92 NSCLC) of the same compound?
Answer: 28.7 µM and 14.8 µM

Question: And the TGI (HCC-2998 colon)?
Answer: 31.1 µM and 27.3 µM

Question: And the TGI (786-0 renal)?
Answer: 31.7 µM and 29.5 µM

Question: What about the TGI (ACHN renal) of the same compound?
Answer: 31.4 µM and 30.8 µM

Question: What about the TGI (TK-10 renal) of the same compound?
Answer: 36.5 µM and 31.6 µM

Question: What about the TGI (KM20L2 colon) of the same compound?
Answer: 36.3 µM and 34.5 µM

Question: And the TGI (LXFL 529 NSCLC)?
Answer: 28.8 µM and 23.9 µM

Question: And the TGI (UACC-257 melanoma)?
Answer: 31.9 µM and 28.8 µM

Question: What about the TGI (SK-MEL-5 melanoma) of the same compound?
Answer: 33.3 µM and 29.7 µM

Question: And the TGI (U251 CNS)?
Answer: 29.5 µM and 30.8 µM

Question: And the GI50 (OVCAR-8 ovarian)?
Answer: 16.5 µM and 5.32 µM

Question: What about the TGI (OVCAR-8 ovarian) of the same compound?
Answer: 30.1 µM and 17.6 µM
